Laboratory results reported in patent US11155668B2, “Contact-killing, QAC functionalized thermoplastic polyurethane for catheter applications” (THE UNIVERSITY OF AKRON, priority 2017, dated 2021).

Legend:
E. faecalis = assay: Contact-killing assay (adapted from ISO 22196) on allyl-TPU blade-coated samples modified with Qx-SH; type: cell-based, Enterococcus faecalis (ATCC 29212); conditions: n = 1
Description: (§1) To functionalize the allyl-TPU blade-coated samples with Qx-SH reagents, thiol-ene reactions were performed using the same procedure described for rhodamine-SH. Briefly, blade-coated films of allyl-TPU (250 μm thick, 2.0 cm diameter, ca. 110 mg, 20 μmol allyl) were submerged in 2 mL of an Ar purged (30 min) aqueous solution containing Qx-SH (10.0 mM) and LAP (5.0 mM), and allowed to pre-soak for 30 min under Ar. UV-treated samples were irradiated for 30 min (λ=365 nm, I=1.2 mW·cm^−2) while phys. ads. samples were kept in the absence of UV light for 30 min to control for any antimicrobial activity that is contributed by non-covalently attached QAC. Following treatment, the dye/photoinitiator solutions were drawn up and discarded, and the samples were rinsed with 5 mL of DI water (3×) then submerged in 5 mL of DI water. The samples were further rinsed with 10% EtOH (3×) and soaked in 10% EtOH for 15 min (3×), rinsing with 10% EtOH in between each soak.
(§2) For antimicrobial testing, blade-coated samples and catheter tubing of allyl-TPU were sterilized by EtO sterilization using an Anprolene benchtop sterilizer (Anderson Products, Inc., Haw River, N.C.) following the manufacturer's protocol to deliver approximately 0.5 cc·L^−1 of EtO gas over a 12 h sterilization cycle at 35% humidity and room temperature, followed by a 48 h purge under vacuum. The bacterial strains used in this study included Staphylococcus epidermidis (ATCC 12228), Staphylococcus aureus (25923), Escherichia coli (ATCC 25922), Pseudomonas aeruginosa (ATCC 27853), Enterococcus faecalis (ATCC 29212), and methicillin-resistant Staphylococcus aureus (MRSA) (ATCC BAA-41).
(§3) The contact-killing assay was performed on physically adsorbed (phys. ads.), and UV-treated blade-coated samples modified with a series of Qx-SH reagents using a method adapted from ISO 22196. See, International Organization for Standardization. Measurement of antibacterial activity on plastics and other non porous surfaces (ISO 22196:2011), the disclosure of which is incorporated herein by reference in its entirety. Briefly, the samples were inoculated with same day cultures of select bacteria (e.g. E. coli, S. epidermidis) in dilute nutrient media (0.2% tryptic soy broth (TSB) in 1× phosphate buffered saline (PBS)) at approximately 150 colony-forming units (CFU)·mm^−2. Generally, 35 uL of 8.5×10^5 CFU/mL cultures were dispersed across the surface of the sample using sterile polypropylene cover films (area=198 mm^2). Inoculated samples were incubated in a humidified room air incubator (36° C., ca. 80% rel. humidity) for 20 h. Following incubation, surviving cells were recovered from the samples using vigorous agitation (i.e. vortexing for 20 s in PBS). Surviving cells were enumerated via 10-fold series dilution and plating 100 μL onto tryptic soy agar (TSA), incubating overnight and then plate counting CFU. The mean CFU recovered per sample (CFU/sample) were calculated by accounting for dilutions. Internal controls samples of polypropylene and chlorhexidine treated with polypropylene were included in the assay.

MRSA = assay: as above; type: cell-based; conditions: n = 1
Description: as §1, §2, §3

S. epidermidis = assay: as above; type: cell-based, Staphylococcus epidermidis (ATCC 12228); conditions: n = 2
Description: as §1, §2, §3

E. coli [1] = assay: as above; type: cell-based, Escherichia coli (ATCC 25922); conditions: for Mean CFU/Sample Recovered, E. coli: n = 2
Description: as §1, §2
as §3, with “Inoculated samples were incubated in a humidified room air incubator (36° C., ca. 80% rel. humidity) for 20 h.” left out

P. aeruginosa = assay: as above; type: cell-based, Pseudomonas aeruginosa (ATCC 27853); conditions: for Mean CFU/Sample Recovered, P. aeruginosa: n = 1
Description: as §1, §2, §3

E. coli [2] = assay: Antimicrobial testing using ISO22196 protocol on compression molded samples; type: cell-based; conditions: surface functionalized (covalently attached QAC) sample; FIG. 7B
[3] = UV-treated samples, negative control polypropylene 1.70 × 10^5
[4] = phys. ads. samples, negative control polypropylene 1.70 × 10^5
[5] = UV-treated samples, negative control polypropylene 1.51 × 10^5
[6] = phys. ads. samples, negative control polypropylene 1.51 × 10^5
[7] = UV-treated samples, negative control polypropylene 0.93 (±0.03) × 10^5
[8] = phys. ads. samples, negative control polypropylene 0.93 (±0.03) × 10^5
[9] = UV-treated samples, negative control polypropylene 2.04 (±0.06) × 10^6
[10] = phys. ads. samples, negative control polypropylene 2.04 (±0.06) × 10^6
[11] = UV-treated samples, negative control polypropylene 7.94 × 10^6
[12] = phys. ads. samples, negative control polypropylene 7.94 × 10^6
[13] = UV-treated samples, 24 h contact-killing assay
[14] = positive control (chlorhexidine treated polypropylene)

SMILES | Mean CFU/Sample Recovered, E. faecalis (E. faecalis; [3]) [CFU/Sample] | Mean CFU/Sample Recovered, E. faecalis (E. faecalis; [4]) [CFU/Sample] | Mean CFU/Sample Recovered, MRSA (MRSA; [5]) | Mean CFU/Sample Recovered, MRSA (MRSA; [6]) [CFU/Sample] | Mean CFU/Sample Recovered, S.epidermidis (S. epidermidis; [7]) [CFU/Sample] | Mean CFU/Sample Recovered, S.epidermidis (S. epidermidis; [8]) [CFU/Sample] | Mean CFU/Sample Recovered, E. coli (E. coli [1]; [9]) | Mean CFU/Sample Recovered, E. coli (E. coli [1]; [10]) | Mean CFU/Sample Recovered, P. aeruginosa (P. aeruginosa; [11]) | Mean CFU/Sample Recovered, P. aeruginosa (P. aeruginosa; [12]) | log reduction, activity against E. coli (E. coli [2]) [log] | log reduction in E. coli compared to the negative control (E. coli [1]; [13]) [log] | reduction in E. coli compared to the negative control (E. coli [1]; [13]) [%] | reduction of P. aeruginosa (P. aeruginosa; UV-treated samples) | Mean CFU/Sample Recovered, E. faecalis (E. faecalis; [14]) [CFU/Sample] | Mean CFU/Sample Recovered, MRSA (MRSA; [14]) [CFU/Sample] | Mean CFU/Sample Recovered, S.epidermidis (S. epidermidis; [14]) [CFU/Sample] | Mean CFU/Sample Recovered, E. coli (E. coli [1]; [14]) [CFU/Sample] | Mean CFU/Sample Recovered, P. aeruginosa (P. aeruginosa; [14]) [CFU/Sample]
CCCCCCCCCCCCCC[N+](C)(C)CCCCCCCCOC(=O)CCS.[Cl-] [Q14-SH] | 0.00 | 0.00 | 1.00 × 10^2 CFU/Sample | 0.00 | 0.00 ± 0.00 | 0.00 ± 0.00 | 6.61 (±0.01) × 10^5 CFU/Sample | 6.03 (±0.03) × 10^5 CFU/Sample | 5.25 × 10^6 CFU/Sample | 4.79 × 10^6 CFU/Sample |  |  |  |  |  |  |  |  | 
CCCCCCCCCCCCCC[N+](C)(C)CCCCCCCCOC(=O)CCSSCCC(=O)OCCCCCCCC[N+](C)(C)CCCCCCCCCCCCCC.[Cl-].[Cl-] [8-Q14-S-S] |  |  |  |  |  |  |  |  |  |  | 6 |  |  |  |  |  |  |  | 
CCCCCCCCCCCC[N+](C)(C)CCCCCCCCOC(=O)CCS.[Cl-] [Q12-SH] | 0.00 | 0.00 | 0.00 CFU/Sample | 0.00 | 0.00 ± 0.00 | 0.00 ± 0.00 | 0.00 ± 0.00 CFU/Sample | 1.17 (±0.41) × 10^3 CFU/Sample | 0.00 CFU/Sample | 7.24 × 10^5 CFU/Sample |  | 6 | 99.9999 | complete reduction |  |  |  |  | 
[H]/N=C(\N/C(=N/[H])NCCCCCCNC(=N)NC(=N)Nc1ccc(Cl)cc1)Nc1ccc(Cl)cc1 [Chlorhexidine, reference compound] |  |  |  |  |  |  |  |  |  |  |  |  |  |  | 0.00 | 0.00 | 0.00 ± 0.00 | 0.00 ± 0.00 | 0.00
